Assay [1] relates to neuronal death caused by amyloid-beta-protein. The conditions noted are these: Society for Neuroscience Abstracts 24, Part 1, 228, 1998; cited from earlier work.
The conditions of assay [2]: reported in the literature; cited from earlier work.
For assay [3] the following is noted: Society for Neuroscience Abstracts 21, 947, 1995; cited from earlier work.
The subject of another assay is nerve growth factor. Particulars: WO96/12717; cited from earlier work.
A further assay deals with ddY male mice. Put plainly: Anti-hypoxic activity: survival time of mice in 4% oxygen / 96% nitrogen after oral administration. In kind it is in vivo. The protocol:
Test compounds A1, A2, A3, B1 and B2 were put to use after dissolution in distilled water. Test compounds C1 and C2 were put to use after suspending them in 0.5% solution of methylcellulose.
The test was carried out according to the method described in Japanese Journal of Pharmacology, Vol. 62, Page 81, 1993.
To one group (6-10 animals) of ddY male mice having an age of 4-5 weeks was orally administered a test compound dissolved in distilled water or suspended in 0.5% methyl cellulose solution. Thirty minutes after the administration, the mice were introduced into a glass container at a volume of 300 mL, and a gaseous mixture composed of 4% of oxygen and 96% of nitrogen was passed though the glass container at a flow rate of 5 L/minute. The period of time from the start of passing the gaseous mixture to the death of the mice was measured. To the control group, distilled water was administered orally.

The next assay relates to in-brain acetylcholine. The conditions noted are these: Society for Neuroscience Abstracts 21, 947, 1995; cited from earlier work.
The mark [4] stands for this setting: 10 mg/kg oral, alone, survival time vs control x100, 30 min after administration.
[5] abbreviates: Compound (1) 10 mg/kg oral in combination with Compound B1 (Donepezil) 3 mg/kg.
Setting [6] is: Compound (1) 10 mg/kg oral in combination with Compound B2 (Tacrine) 10 mg/kg.
Setting [7] is: 100 mg/kg oral, alone, survival time vs control x100.

Molecules are shown by their SMILES. Several values for one entry are separate records, joined by “and”; a condition that tells them apart may be missing. Equal values may be shown once.

`CCN(CC)CCOC[C@H](O)c1ccc2sccc2c1.Cl` [Compound A1, (R)-1-{benzo[b]thiophen-5-yl}-2-[2-(N,N-diethylamino}ethoxy]ethanol hydrochloride]: in assay [1], the “protecting effect on the neuronal death caused by amyloid-beta-protein” value is recorded as “exhibits a protecting effect”. Also, the anti-hypoxic activity entry in assay [2] is recorded as “has an anti-hypoxic activity”. Further, the anti-amnestic activity result in assay [3] is listed as “an anti-amnestic activity”. Also, the “effect on the action of nerve growth factor” value with nerve growth factor is recorded as “exhibits an increasing effect”. The “Anti-hypoxic activity (%)” value with ddY male mice (setting [4]) was 137%; in the assay on ddY male mice (setting [5]) it was 211%; in the assay on ddY male mice (setting [6]) it was 172%. Also, the “release of in-brain acetylcholine” value in the assay with in-brain acetylcholine was “promotes the release of in-brain acetylcholine”.
Regarding `CN(CCO)CCCOCCc1ccc2sccc2c1.CN(CCO)CCCOCCc1ccc2sccc2c1.O=C(O)/C=C/C(=O)O` [Compound A2, 2-[[3-(2-benzo[b]thiophen-5-yl-ethoxy)propyl](methyl)amino]-1-ethanol.1/2fumarate], the entries for the “Anti-hypoxic activity (%)” value with ddY male mice (setting [4]), in the assay with ddY male mice (setting [5]) and in the assay with ddY male mice (setting [6]) were 114%, 168% and 172%, respectively.
With `O=C(O)/C=C\C(=O)O.OC1CN(CCCOCCc2ccc3sccc3c2)C1` [Compound A3, 1-[3-(2-(1-benzothiophen-5-yl)ethoxy]-propyl]-3-azetidinol-maleate], the “Anti-hypoxic activity (%)” value in the assay with ddY male mice (setting [4]) is 111%; in the assay with ddY male mice (setting [5]), 190%; in the assay with ddY male mice (setting [6]), 149%.
With `COc1cc2c(cc1OC)C(=O)C(CC1CCN(Cc3ccccc3)CC1)C2` (centres unmarked) [Compound B1, Donepezil], the “Anti-hypoxic activity (%)” value with ddY male mice (3 mg/kg oral, alone, survival time vs control x100) was 119% and 104%.
As to `Cl.Nc1c2c(nc3ccccc13)CCCC2` [Compound B2, 1,2,3,4-tetrahydro-9-acridinamine hydrochloride], the anti-hypoxic activity entry in assay [2] is “anti-hypoxic activity is shown”. The “Anti-hypoxic activity (%)” value with ddY male mice (10 mg/kg oral, alone, survival time vs control x100, 30 min after administration, hydrochloride) was 127% and 107%.
Consider `COC1=C(OC)C(=O)C(CCCCCCCCCCO)=C(C)C1=O` [Compound C1, Idebenone], for which the “Anti-hypoxic activity (%)” value in the assay on ddY male mice (setting [7]) stood at 104%; with ddY male mice (300 mg/kg oral, alone, survival time vs control x100), 108%; in the assay on ddY male mice (Compound (1) 300 mg/kg oral in combination with Compound B1 (Donepezil) 3 mg/kg), 100%.
With `Cl.FC(F)(F)c1cccc(C2=CCN(CCc3ccc4ccccc4c3)CC2)c1` [Compound C2, SR57746A], the “Anti-hypoxic activity (%)” value in the assay with ddY male mice (30 mg/kg oral, alone, survival time vs control x100) was found to be 100%; with ddY male mice (setting [7]), 123%; in the assay on ddY male mice (Compound (1) 100 mg/kg oral in combination with Compound B1 (Donepezil) 3 mg/kg), 111%.

Values taken from patent publication US7834053B2, “Medicinal compositions improving brain function and method for improving brain function” (priority 2002, dated 2010).
